Legend:
[1] = target: GDP-bound KRAS protein (aa 1-169), containing both G12D and C118A amino acid substitutions (Homo sapiens (Human), UniProt P01116, C118A/G12D); experiment: KRAS G12D Coupled Nucleotide Exchange Assay; type: biochemical; conditions: read-out: KRAS G12D Coupled Exchange IC50
[2] = target: His-tagged KRAS G12D protein (Homo sapiens (Human), UniProt P01116, G12D); experiment: KRAS G12D TR-FRET Assay; type: binding; conditions: read-out: KRAS G12D Binding IC50
Outline: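 Each incubation ran at room temperature: enzyme with compound for 30 minutes, peptide for one hour, and detection reagents (0.4 nM europium anti-6×His, 5 nM streptavidin-d2) for one hour more. Protein and peptide stocks were each diluted to 20 nM before addition.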

[3] = tested on: Phosphorylation of ERK1/2 in AsPC-1 cells; experiment: Phospho-ERK1/2 MSD Assay; type: cell-based, human; conditions: Homo sapiens, ASPC1, 2 h, read-out: 2 h p-ERK (AsPC-1 cells), IC50
Experimental: AsPC-1 (ATCC® CRL-1682™) cells were cultured in RPMI 1640 Medium (ThermoFisher Scientific 11875093) containing 10% fetal bovine serum (ThermoFisher Scientific 16000044) and 1× penicillin-streptomycin-glutamine (ThermoFisher Scientific 10378016). Sixteen hours prior to compound treatment, AsPC-1 cells were seeded in 96-well cell culture plates at a density of 25,000 cells/well and incubated at 37° C., 5% CO2. A compound dose-response titration was diluted in growth media, added to appropriate wells of a cell culture plate, and then incubated at 37° C., 5% CO2 for 2 hours. Following compound treatment, cells were washed with ice-cold Dulbecco's phosphate-buffered saline, no Ca^2+ or Mg^2+ (ThermoFisher Scientific 14190144), and then lysed in RIPA buffer (50 mM Tris-HCl pH 7.5, 1% Igepal, 0.5% sodium deoxycholate, 150 mM NaCl, and 0.5% sodium dodecyl sulfate) containing protease inhibitors (Roche 4693132001) and phosphatase inhibitors (Roche 4906837001). Phosphorylation of ERK1/2 in compound-treated lysates was assayed using Phospho-ERK1/2 Whole Cell Lysate kits (Meso Scale Discovery K151DWD) according to the manufacturer's protocol. Assay plates were read on a Meso Scale Discovery Sector Imager 6000, and data were analyzed using a 4-parameter logistic model to calculate IC50 values.

Sequence of His-tagged KRAS G12D protein (P01116 other isoform, or with tags, fused parts or gaps G12D): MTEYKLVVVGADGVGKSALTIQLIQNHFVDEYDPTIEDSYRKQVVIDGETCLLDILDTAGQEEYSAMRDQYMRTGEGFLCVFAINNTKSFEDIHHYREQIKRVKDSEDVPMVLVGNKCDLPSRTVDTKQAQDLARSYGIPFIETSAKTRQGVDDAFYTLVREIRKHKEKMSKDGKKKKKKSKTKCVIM
Sequence of GDP-bound KRAS protein (aa 1-169), containing both G12D and C118A amino acid substitutions (P01116 other isoform, or with tags, fused parts or gaps G12D/C118A): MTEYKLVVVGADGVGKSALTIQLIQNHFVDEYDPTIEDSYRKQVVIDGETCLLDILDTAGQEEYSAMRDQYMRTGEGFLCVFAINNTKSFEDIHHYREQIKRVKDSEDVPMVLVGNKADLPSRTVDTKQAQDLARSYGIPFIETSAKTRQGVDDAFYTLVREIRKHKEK

| SMILES | IC50 [1] | IC50 [2] | IC50 [3] |
| --- | --- | --- | --- |
| O=C1COCCCc2c(Cl)cc3[nH]ncc3c2-c2ncc3c(nc(OC[C@@]45CCCN4C[C@H](F)C5)nc3c2F)N2CCC[C@H](C2)O1 [Example 37, (18R)-9-Chloro-31-fluoro-25-(((2R,7aS)-2-fluorotetrahydro-1H-pyrrolo[1,2-a]pyrrol-7a(5H)-yl)methoxy)-14,17-dioxa-5,6,22,24,26,30-hexaazahexacyclo[25.3.1.1˜18,22˜.0˜2,10˜.0˜3,7˜.0˜23,28˜]dotriaconta-1(31),2,4,7,9,23,25,27,29-nonaen-16-one bis(2,2,2-trifluoroacetate)] | 0.004 µM | 0.005 µM | 0.058 µM |
| O=C1CCCCc2c(Cl)cc3[nH]ncc3c2-c2ncc3c(nc(OC[C@@]45CCCN4C[C@H](F)C5)nc3c2F)N2CC[C@@H]3CCN1[C@@H]3C2 [Example 61, (28R,32S)-18-chloro-33-fluoro-4-(((2R,7aS)-2-fluorotetrahydro-1H-pyrrolo[1,2-a]pyrrol-7a(5H)-yl)methoxy)-1,3,5,9,14,15,25-heptaazaheptacyclo[23.5.2.1~6,10~.0~2,7~.0~11,19~.0~12,16~.0~28,32~]tritriaconta-2,4,6,8,10(33),11,13,16,18-nonaen-24-one] | 0.034 µM | 0.079 µM | 0.07 µM |
| O=C1CCCc2c(F)ccc3cccc(c23)-c2ncc3c(nc(OC[C@@]45CCCN4C[C@H](F)C5)nc3c2F)N2CCC[C@H](C2)N1 [Example 68, (15R)-22,31-Difluoro-8-(((2R,7aS)-2-fluorotetrahydro-1H-pyrrolo[1,2-a]pyrrol-7a(5H)-yl)methoxy)-3,7,9,11,16-pentaazahexacyclo[19.7.1.1˜2,6˜.1˜11,15˜.0˜5,10˜.0˜25,29˜]hentriaconta-1(28),2(31),3,5,7,9,21,23,25(29),26-decaen-17-one 2,2,2-trifluoroacetate] | 0.016 µM | 0.033 µM | 0.931 µM |
| Cc1cc2[nH]ncc2c2c1CCCC(=O)OCC1(O)CCCN(C1)c1nc(OC[C@@]34CCCN3C[C@H](F)C4)nc3c(F)c-2ncc13 (mixture of isomers) [Example 103] | 0.032 µM | 0.031 µM | 1.99 µM |
| Cc1cc2[nH]ncc2c2c1CCCCOC(=O)[C@@H]1CCCN(C1)c1nc(OC[C@@]34CCCN3C[C@H](F)C4)nc3c(F)c-2ncc13 [Example 108] | 0.014 µM | 0.024 µM | 0.386 µM |
| O=C1OCCCc2c(Cl)cc3[nH]ncc3c2-c2ncc3c(nc(OC[C@@]45CCCN4C[C@H](F)C5)nc3c2F)N2C[C@H]3C[C@H]3[C@H](C2)O1 (racemic) [Example 179] | 0.005 µM | 0.009 µM | 0.0788 µM |
| CN1CCC(Oc2nc3c4cnc(c(F)c4n2)-c2c(c(Cl)cc4[nH]ncc24)CCCOC(=O)O[C@@H]2COCCN3C2)CC1.O=C(O)C(F)(F)F [Example 370, (26S)-18-Chloro-32-fluoro-4-((1-methyl-4-piperidinyl)oxy)-23,25,28-trioxa-1,3,5,9,14,15-hexaazahexacyclo[24.4.1.1˜6,10˜.0˜2,7˜.0˜11,19˜.0˜12,16˜]dotriaconta-2,4,6,8,10(32),11,13,16,18-nonaen-24-one trifluoroacetate] | 0.018 µM | 0.036 µM | 0.708 µM |
| O=C1CCCc2c(F)ccc3cccc(c23)-c2ncc3c(nc(OC[C@@]45CCCN4C[C@H](F)C5)nc3c2F)N2CCCC[C@H](C2)N1 [Example 69, (16R)-23,32-difluoro-8-(((2R,7aS)-2-fluorotetrahydro-1H-pyrrolo[1,2-a]pyrrol-7a(5H)-yl)methoxy)-3,7,9,11,17-pentaazahexacyclo[20.7.1.1~2,6~.1~11,16~.0~5,10~.0~26,30~]dotriaconta-1(29),2(32),3,5,7,9,22,24,26(30),27-decaen-18-one] | 0.02 µM | 0.03 µM | 1.14 µM |
| Cc1cc2[nH]ncc2c2c1C[C@H](C)COC(=O)O[C@@H]1CCCN(C1)c1nc(OC[C@@]34CCCN3C[C@H](F)C4)nc3c(F)c-2ncc13 (single isomer, unassigned) [Example 215] | 0.012 µM | 0.015 µM | 0.108 µM |
| Cc1cc2[nH]ncc2c2c1C[C@H](C)CCOC[C@@H]1CCCN(C1)c1nc(OC[C@@]34CCCN3C[C@H](F)C4)nc3c(F)c-2ncc13 [Example 251, (12S,17R)-30-fluoro-24-(((2R,7aS)-2-fluorotetrahydro-1H-pyrrolo[1,2-a]pyrrol-7a(5H)-yl)methoxy)-9,12-dimethyl-15-oxa-5,6,21,23,25,29-hexaazahexacyclo[24.3.1.1~17,21~.0~2,10~.0~3,7~.0~22,27~]hentriaconta-1(30),2,4,7,9,22,24,26,28-nonaene] | 0.008 µM | 0.015 µM | 0.381 µM |
| O=C1N[C@@H]2CCCCN(C2)c2nc(OC[C@@]34CCCN3C[C@H](F)C4)nc3c(F)c(ncc23)-c2c(c(Cl)cc3[nH]ncc23)CCCCO1 [Example 291, (27R)-18-chloro-33-fluoro-4-(((2R,7aS)-2-fluorotetrahydro-1H-pyrrolo[1,2-a]pyrrol-7a(5H)-yl)methoxy)-24-oxa-1,3,5,9,14,15,26-heptaazahexacyclo[25.4.1.1~6,10~.0~2,7~.0~11,19~.0~12,16~]tritriaconta-2,4,6(33),7,9,11,13,16,18-nonaen-25-one] | 0.005 µM | 0.026 µM | 1.23 µM |
| Fc1c2ncc3c(nc(OC[C@@]45CCCN4C[C@H](F)C5)nc13)N1CCOC(C1)c1cnn(n1)CCCc1c(Cl)cc3[nH]ncc3c1-2 (stereo partly drawn) [Example 294, 9-chloro-31-fluoro-25-(((2R,7aS)-2-fluorotetrahydro-1H-pyrrolo[1,2-a]pyrrol-7a(5H)-yl)methoxy)-19-oxa-5,6,14,15,22,24,26,30,33-nonaazaheptacyclo[25.3.1.1~14,17~.1~18,22~.0~2,10~.0~3,7~.0~23,28~]tritriaconta-1(31),2,4,7,9,15,17(33),23,25,27,29-undecaene] | 0.009 µM | 0.02 µM | 0.0551 µM |
| Cc1cc2[nH]ncc2c2c1CC(C)COC(=O)O[C@@H]1CCCN(C1)c1nc(OC[C@@]34CCCN3C[C@H](F)C4)nc3c(F)c-2ncc13 (stereo partly drawn) [Example 111] | 0.011 µM | 0.015 µM | 0.187 µM |
| Fc1c2ncc3c(nc(OC[C@@]45CCCN4C[C@H](F)C5)nc13)N1CCCC(Cc3ncn(n3)CCc3c(Cl)cc4[nH]ncc4c3-2)C1 (stereo partly drawn) [Example 232] | 0.018 µM | 0.031 µM | 1.34 µM |
| Cc1c2ncc3c(nc(OCC4CN(C)CCO4)nc13)N1CCC[C@](C)(C1)NC(=O)CCCc1c(F)ccc3cc(O)cc-2c13 (mixture of isomers) [Example 24] | 0.018 µM | 0.02 µM | 1.14 µM |
| Cc1cc2[nH]ncc2c2c1/C=C/COC(=O)O[C@@H]1CCCN(C1)c1nc(OC[C@@]34CCCN3C[C@H](F)C4)nc3c(F)c-2ncc13 [Example 101, (11E,17R)-30-fluoro-24-(((2R,7aS)-2-fluorotetrahydro-1H-pyrrolo[1,2-a]pyrrol-7a(5H)-yl)methoxy)-9-methyl-14,16-dioxa-5,6,21,23,25,29-hexaazahexacyclo[24.3.1.1~17,21~.0~2,10~.0~3,7~.0~22,27~]hentriaconta-1(30),2,4,7,9,11,22,24,26,28-decaen-15-one] | 0.07 µM | 0.093 µM | 1.34 µM |
| Cc1cc2[nH]ncc2c2c1CCCCC(=O)N[C@@H]1CCCN(C1)c1nc(OC[C@@]34CCCN3C[C@H](F)C4)nc3c(F)c-2ncc13.O=C(O)C(F)(F)F [Example 48, (17R)-30-fluoro-24-(((2R,7aS)-2-fluorotetrahydro-1H-pyrrolo[1,2-a]pyrrol-7a(5H)-yl)methoxy)-9-methyl-5,6,16,21,23,25,29-heptaazahexacyclo[24.3.1.1˜17,21˜.0˜2,10˜.0˜3,7˜.0˜22,27˜]hentriaconta-1(30),2,4,7,9,22,24,26,28-nonaen-15-one 2,2,2-trifluoroacetate] | 0.013 µM | 0.014 µM | 0.931 µM |
| Cc1cc2[nH]ncc2c2c1CCCCC(=O)N1CC3(CCCN(C3)c3nc(OC[C@@]45CCCN4C[C@H](F)C5)nc4c(F)c-2ncc34)C1 [Example 56, 32-fluoro-24-(((2R,7aS)-2-fluorotetrahydro-1H-pyrrolo[1,2-a]pyrrol-7a(5H)-yl)methoxy)-10-methyl-3,13,14,19,23,25,27-heptaazaheptacyclo[25.3.1.1~1,3~.1~18,22~.0~9,17~.0~12,16~.0~21,26~]tritriaconta-9,11,14,16,18(32),19,21,23,25-nonaen-4-one] | 0.011 µM | 0.02 µM | 2.32 µM |
| Cc1cc2[nH]ncc2c2c1CCCOC(=O)O[C@@H]1C[C@H](F)CN(C1)c1nc(OC[C@@]34CCCN3C[C@H](F)C4)nc3c(F)c-2ncc13 (racemic) [Example 95] | 0.036 µM | 0.038 µM | 2.46 µM |
